Experimental data taken from the supplement of paper PMC12494721.
Structures can show the parent of a compound that is named as a salt.

Experiments:
Settings in all cases: incubation time: 27 h, anaerobic, 37 °C
[1] = system: Escherichia coli IAI1; test: growth (OD595) fold change vs plate DMSO controls (fold change (ratio)); higher = more growth
[2] = system: Escherichia coli IAI1; test: fold change of Putrescine concentration vs plate DMSO controls (fold change (ratio)); higher = more amine produced
[3] = system: Escherichia coli IAI1; test: fold change of Cadaverine concentration vs plate DMSO controls (fold change (ratio)); higher = more amine produced
[4] = system: Clostridium sporogenes DSM 1664; test: growth (OD595) fold change vs plate DMSO controls (fold change (ratio)); higher = more growth
[5] = system: Clostridium sporogenes DSM 1664; test: fold change of Tryptamine concentration vs plate DMSO controls (fold change (ratio)); higher = more amine produced
[6] = system: Ruminococcus gnavus DSM 108212; test: growth (OD595) fold change vs plate DMSO controls (fold change (ratio)); higher = more growth
[7] = system: Ruminococcus gnavus DSM 108212; test: fold change of Tryptamine concentration vs plate DMSO controls (fold change (ratio)); higher = more amine produced
[8] = system: Ruminococcus gnavus DSM 108212; test: fold change of 2-Phenylethylamine concentration vs plate DMSO controls (fold change (ratio)); higher = more amine produced

C=CC1=C(C(=O)O)N2C(=O)[C@@H](NC(=O)/C(=N\O)c3csc(N)n3)[C@H]2SC1 [Cefdinir]
Settings | fold change of Cadaverine concentration, [3] | fold change of Putrescine concentration, [2] | growth, [1]
0.6125 µM | 1.1 | 0.759 | 0.899
1.25 µM | 1.18 | 0.836 | 0.905
2.5 µM | 1.98 | 1.47 | 0.0538
5 µM | 0.812 | 0.282 | -0.042
10 µM | 0.533 | 0.152 | -0.0507
20 µM | 1.17 | 0.342 | -0.0475

C=CC1=C(C(=O)O)N2C(=O)[C@@H](NC(=O)/C(=N\OCC(=O)O)c3csc(N)n3)[C@H]2SC1 [Cefixime]
Settings | fold change of Cadaverine concentration, [3] | fold change of Putrescine concentration, [2] | fold change of Tryptamine concentration, [5] | growth, [1] | growth, [4]
0.6125 µM | 1.07 | 0.815 | 0.977 | 0.848 | 1.05
1.25 µM | 1.07 | 0.897 | 0.994 | 0.903 | 1.02
2.5 µM | 1.72 | 0.839 | 0.974 | 0.859 | 0.842
5 µM | 2.01 | 2.82 | 0.937 | 0.193 | 0.82
10 µM | 2.2 | 1.37 | 0.925 | 0.0344 | 0.675
20 µM | 2.17 | 1.16 | 0.887 | -0.00514 | 0.527

CCN1CCN(C(=O)N[C@@H](C(=O)N[C@@H]2C(=O)N3C(C(=O)O)=C(CSc4nnnn4C)CS[C@H]23)c2ccc(O)cc2)C(=O)C1=O [Cefoperazone dihydrate]
Settings | fold change of 2-Phenylethylamine concentration, [8] | fold change of Cadaverine concentration, [3] | fold change of Putrescine concentration, [2] | fold change of Tryptamine concentration, [7] | growth, [1] | growth, [6]
0.6125 µM | 0.866 | 1.07 | 0.765 | 1.01 | 0.9 | 1.55
1.25 µM | 0.808 | 1.12 | 0.851 | 0.955 | 0.914 | 1.15
2.5 µM | 0.387 | 1.82 | 3.2 | 0.568 | 0.514 | 0.937
5 µM | 0.153 | 2.14 | 1.77 | 0.22 | 0.0751 | 0.627
10 µM | 0.105 | 2.27 | 1.11 | 0.14 | 0.0151 | 0.478
20 µM | 0.0986 | 2.17 | 1.04 | 0.124 | -0.0235 | 0.345

CO/N=C(\C(=O)N[C@@H]1C(=O)N2C(C(=O)[O-])=C(C[n+]3ccn4ncccc43)CS[C@H]12)c1nsc(N)n1 [Cefozopran hydrochloride]
Settings | fold change of 2-Phenylethylamine concentration, [8] | fold change of Cadaverine concentration, [3] | fold change of Putrescine concentration, [2] | fold change of Tryptamine concentration, [7] | growth, [1] | growth, [6]
0.6125 µM | 0.623 | 0.986 | 0.772 | 0.714 | 0.818 | 1.24
1.25 µM | 0.361 | 0.959 | 0.919 | 0.52 | 0.863 | 0.965
2.5 µM | 0.162 | 0.929 | 0.717 | 0.275 | 1.06 | 1.03
5 µM | 0.105 | 0.962 | 0.793 | 0.16 | 1.12 | 1.06
10 µM | 0.101 | 1.38 | 1.12 | 0.148 | 1.15 | 1.24
20 µM | 0.0948 | 2.16 | 2.17 | 0.135 | 0.238 | 0.529

CO/N=C(\C(=O)N[C@@H]1C(=O)N2C(C(=O)O)=C(COC(N)=O)CS[C@H]12)c1ccco1 [Cefuroxime sodium salt]
Settings | fold change of Cadaverine concentration, [3] | fold change of Putrescine concentration, [2] | fold change of Tryptamine concentration, [5] | growth, [1] | growth, [4]
0.6125 µM | 1.11 | 0.907 | 1.01 | 0.872 | 0.8
1.25 µM | 1.13 | 0.853 | 1.01 | 0.929 | 0.69
2.5 µM | 1.09 | 0.758 | 1.04 | 1.03 | 0.755
5 µM | 2.02 | 1.11 | 0.764 | 0.923 | 0.214
10 µM | 2.06 | 2.59 | 0.0406 | 0.171 | -0.0277
20 µM | 2.13 | 1.24 | 0.0242 | 0.0264 | -0.0443
